Key:
[1] = intraperitoneal hepatic recycling glucose tolerance test (HRGTT) with [1, 2-^13C2]-glucose load; assay type: in vivo, C57BL6 mice; conditions: for decrease in total amount of M2 glucose: compared to amount appearing in plasma between 0-60 minutes
Experimental: Stable isotopes of the M2 isotopomer glucose was administered at 1 mg glucose/gm body weight by intraperitoneal injection. Animals were euthanized by an overdose of isoflurane anesthesia, and tissue from liver and skeletal muscle were rapidly dissected free, snap-frozen in liquid nitrogen, and stored at −80° C. until processed for isolation of RNA or glycogen. Cytosolic protein was extracted from the liver tissue after homogenization with 10 strikes in lysis buffer containing 0.25 M sucrose, I OmM Tris-HCL(pH7.4), 3 mM MgCL2, 0.1 mM PMSF, 20 mM NaF, 1 mM Na3VO4, 1 MM Na4P207, 1 μg/ml of leupeptin/aprotinin/pepstatin. The resulting cell lysate was filtered with 4 layers of cheesecloth. Nuclei were pelleted by centrifugation at 1000 g for 10 min. Mitochondria were precipitated by centrifugation at 15,000 g for 20 min from the supernatant. The cytosolic fraction was isolated as the supernatant obtained from last ultra-centrifugation at 100,000 g at 4° C. for 1 hr. Protein concentration from cytosol were measured by using an absorbance at 595 run (BCA kit from Pierce). 60 1 μg of protein extracts from cytosol were separated by 10% SDS-PAGE. The membrane blots were incubated with anti-GK at 1:2500 (v/v), anti-G6PDH at 1:2000 (v/v), anti-PEPCK at 1:500 (v/v), and anti-p-actin at 1:2000 (v/v), for either 1 hr in western washing buffer at RT or overnight at 4 C after blocking. The blots were hybridized with secondary antibodies coupled to horseradish peroxidase for 40 to 60 min at RT. Immunodetection was accomplished using enhanced chemiluminescence. Density of each band was determined by scanning the exposed film. The time course of glucose and lactate isotopomers in plasma, and glucose isotopomers in liver glycogen was determined using gas chromatography/mass spectrometry. The M1 glucose isotopomer, in which ^13C glucose can occupy the carbon 1 position, was produced via the action of the oxidative limb of the pentose phosphate pathway (PPP) on the administered M2 glucose isotopomer, and its re-entry into the gluconeogenic pathway via the non-oxidative limb of the PPP. The absorption of administered glucose was monitored by the time course of M2 isotopomer, and hepatic glucose recycling by the time course of M1 isotopomer of glucose.

[2] = [1, 2-^13C2]-glucose HR-GTT in C57BL/6 and PPARα KO mice; assay type: in vivo, C57BL/6 mice and PPARα KO mice; conditions: for glucose recycling rate constant (kHR), slope of M1/M2 ratio against time: regression analysis
Experimental: Wild-type (C57BL/6) mice and PPARα KO mice were obtained. In this example, glucose was labeled with either stable isotopes of [1, 2-^13C2]-glucose, or [2-^2H]- and [6, 6-^2H2]-glucose and all isotopes were 99% enriched. The [1, 2-^13C2]-glucose, or a 1:1 mixture of [2-^2H]- and [6, 6-^2H2]-glucose, was then administered at 1 mg glucose/gm body weight by intraperitoneal injection. Blood was sampled at 0, 0.5, 1, 2, and 3 hours for [1, 2-^13C2]-glucose isotopomer analysis, and 0.5, 1 and 2 hours for deuterated glucose isotopomer analysis. Plasma glucose and lactate concentrations were determined by the use of a COBAS MIRA analyzer. All isotopomeric determinations were performed on a Hewlett Packard Mass Selective Detector (model 5973A) connected to an HP Gas Chromatograph (model 6890) using chemical ionization (CI) with 20% methane. The re-cycling of hepatic glucose, leading to the appearance of M1 glucose in blood, occurs when the glucose traverses the glucose<->G-6-P, pentose phosphate pathway, and possibly the TCA cycle. […] The slope of the increase in this ratio gives the in vivo glucose dependent futile re-cycling rate constant of glucose through G-6-P.

OC[C@H]1OC(O)[C@H](O)[C@@H](O)[C@@H]1O (stereo partly shown) [[1,2-^13C2]-glucose]
decrease in total amount of M2 glucose ([1]; 60-120 minutes): 30%
decrease in total amount of M2 glucose ([1]; 120-180 minutes): 65%
plasma M2 enrichment after steady decline ([1]; after the first 60 minutes, ip 1 mg/gm): 20.1±1.3%
enrichment of [1, 2-^13C2]-glucose (M2) in the plasma glucose pool ([1]; enrichment rapidly achieved after ip injection of 1 mg/gm body weight): 55±1.0%
contribution of direct pathway from glucose uptake to glycogen glucose deposited ([1]; glucose load 1 mg glucose/g body weight): less than 5%
M2 isotopomer enrichment in liver glycogen glucose, start of decrease ([1]; liver glycogen, earlier time (2 hours)): 1.9%
M2 isotopomer enrichment in liver glycogen glucose, end of decrease ([1]; liver glycogen, later time (3 hours)): 0.8%
glucose recycling rate constant (kHR), slope of M1/M2 ratio against time ([2]; C57BL/6 mice): 0.1086 ± 0.0049 per hour
glucose recycling rate constant (kHR), slope of M1/M2 ratio against time ([2]; PPARα KO mice, p<0.025 vs C57BL/6): 0.0790 ± 0.0064 per hour
fall in plasma M2 levels, faster in PPARα KO than in C57BL/6 (overall glucose clearance) ([2]; between 0.5 hours and 3.0 hours, p<0.001): 32%

Source: US20050238581A1, “Dynamic hepatic recycling glucose tolerance test” (priority 2002, published 2005)
